A melting point compilation (Tetko et al.; mined from patent text by program, amines drawn as free bases though some values may be those of a salt)

Structure (SMILES) | melting point [°C]
O=C(c1ccccc1)C(F)c1ccccc1 (configuration not stated) | 50 to 51
COc1ccc(Nc2ccnc(F)c2)cc1 | 150
CC#CCOc1ccc(C(=O)NC[C@@H](C(=O)NO)N2CCCCC2)cc1 | 144
CC(=O)NCC1CN(c2ccc(N3CCN(c4nnc(C)o4)CC3)c(F)c2)C(=O)O1 (configuration not stated) | 212 to 214
CCOC(=O)c1nsc(-c2ccccc2)n1 | 32 to 35
N#Cc1ccc2c(c1)C(n1ccccc1=O)=CC(CF)(CF)O2 | 174 to 175
CC(C)Oc1ccc(/C=C(\NC(=O)c2ccc(OCCc3ccc4ccccc4c3)cc2)C(=O)NCCO)cc1 | 78 to 79
OCC1COC(Cc2nc[nH]n2)(c2ccc(Cl)cc2)O1 (configuration not stated) | 115 to 117
Cc1ccc(Nc2cc(NCc3ccccc3)c(C(=O)O)cc2S(N)(=O)=O)cc1 | 128
COC1(c2ccc(Sc3ccc(C(=O)c4c(F)c(F)c(F)c(F)c4F)cc3)s2)CCOCC1 | 93 to 94
COc1cccc(C(CNC(=O)Cc2c(Cl)cncc2Cl)C(C)C)c1 (configuration not stated) | 94 to 95
COc1c(-c2nnc(C)s2)cc2oc(=O)c(C)c(C)c2c1C | 201 to 203
CCCCc1ccc(C#Cc2ccc(C=O)cc2)cc1 | 76 to 78
O=C(Cl)CCCCCCCBr | 110 to 112
CCOc1c(Cl)cc(C(C)(C)N2CC(C)=C(c3ccccc3)C2=O)cc1Cl | 133 to 135
C[C@]1(CN2CCN(S(=O)(=O)CCCc3ccc(Cl)cc3)CC2)Cn2cc([N+](=O)[O-])nc2O1 | 150 to 151
COOC(=O)c1cc2c(Cl)cn(C)c2nc1C(=O)OOC | 129 to 137
CCOC(=O)C(=O)c1c[nH]c2ccc(CNS(C)(=O)=O)cc12 | 218 to 220
COC1=C(OC)C(=O)C2=C(CC(CCCCCCCCN3CCN(Cc4ccccc4)CC3)C2)C1=O | 80 to 81
C1=Cn2ccnc2Cc2ccccc21 | 85.5
Oc1ccc(-c2ncc3ncc(-c4ccc(S)cc4)cc3n2)cc1 | 222 to 223
COc1cc2c(c(Cl)c1Cl)C(=O)C(CCCCCl)C2 (configuration not stated) | 92
Cn1c(Br)nc2c1C(=O)N1CCN=C1N2Cc1ccc(Cl)cc1 | 206 to 207
CCOC(=O)C1CCN(c2nnc(NCc3ccc4c(c3)OCO4)c3cnccc23)CC1 | 119 to 120
NC[C@H]1CNc2cccc(-c3ccccc3Cl)c2O1 | 135

Structure (SMILES) | melting point [°C]
CC(C)(CCO)c1ccc2ncc(C(=O)NCc3ccc(Cl)cc3)c(O)c2c1 | 184 to 192
CC1(C)CCC(C)(C)c2cc(-c3cc(-c4ccc(C(=O)O)cc4)ccc3OCCCCCC(=O)O)ccc21 | 245
CCN(CC)c1nc(C(C)(C)C)nn1-c1c([N+](=O)[O-])cc(C(F)(F)F)cc1[N+](=O)[O-] | 64 to 65
CC(C)NC(=O)CCCCCCI | 46 to 51
CCOc1ccc(Nc2ccc(Nc3ccc(OCC)cc3)c3c2C(=O)c2c(Nc4ccc(OCC)cc4)ccc(Nc4ccc(OCC)cc4)c2C3=O)cc1 | 173 to 175
COc1ccc(C2C(N=[N+]=[N-])C(=O)N2c2ccc(C(=O)O)cc2)cc1 (configuration not stated) | 127 to 129
CCCCCCCCCCCCCCCCCNC(=O)OCCOCCOC(=O)NCc1ccccn1 | 91 to 92
COc1cc(N)c(Cl)cc1C(=O)NCCNCc1ccc(CN(C)C)o1 | 91 to 93
C[C@@H]1Cc2ccsc2[C@H](C)N1CCNS(=O)(=O)c1ccc(N)cc1 (relative stereo) | 126 to 131
Cn1cc(C(=O)NCc2ccc(Cl)cc2)c(=O)c2cc(CN3CCOCC3)cc(I)c21 | 156 to 158
CC(C)(C)c1nn(-c2c(Cl)cc(C(F)(F)F)cc2Cl)c(Cl)c1-c1nc(C#N)c(C#N)[nH]1 | 118 to 120
O=C(Nc1nc[nH]n1)c1ccc(-c2ccc3nnn(Cc4ccc5ncccc5c4)c3n2)cc1F | 265 to 267
CCN1C(=O)c2cccnc2N(CC)c2ncccc21 | 102 to 103
CS(=O)(=O)c1c(C(=O)c2cnoc2C2CC2)ccc(Br)c1F | 144 to 145
CNc1ncc2c(n1)-c1ccc(Cl)cc1C(c1ccccc1F)=NC2 | 172 to 179
CC(C)C[C@@H](C=O)NC(=O)[C@H](Cc1c[nH]cn1)NC(=O)C(CCCCc1ccccc1)Cc1cccc2ccccc12 (some centres not stated) | 87 to 92
O=C1NC(c2ccccc2)CN1S(=O)(=O)c1ccc2c(c1)CCN2C(=S)Nc1ccc(F)cc1 (configuration not stated) | 190 to 192
CCCCCCCCCCCCC1=C(OC(C)=O)C(=O)c2c(Cl)cccc2C1=O | 57 to 59
CCN(C(=O)c1cnc(N2CC(C)NC2=O)nc1N)c1cccc(C(F)(F)F)c1 (configuration not stated) | 207 to 208
CCCc1ccc2c(c1)C(=O)N(c1ccc(C(C)C(=O)OC(C)(C)C)cc1)C2 (configuration not stated) | 110 to 115
CCOC(=O)c1cn2c(n1)CNc1ccccc1-2 | 206 to 208
CSc1nc(NCc2ccc(-c3ccccc3)cc2)n2ncc(C(C)C)c2n1 | 134 to 135
CCCCCCCCC1C=CC(CCc2ccc(C(=O)O)o2)=C2N=C3CCCCC3=C21 (configuration not stated) | 110 to 111
CCCOC(=O)c1cc(-n2c(OC)nc(C(F)(F)F)c(F)c2=O)c(F)cc1Cl | 76 to 78
CCCC(=O)OC1(C(=O)COC(=O)CC)CCC2C3CC(C)C4=CC(=O)C=CC4(C)C3C(O)CC21C (configuration not stated) | 126

Structure (SMILES) | melting point [°C]
COc1ccc(C(=O)Nc2ccccc2)cc1Nc1cc(C)cc(C)c1 | 198 to 199
O=C(O)C(OCc1ccc(-c2ccc(Cl)cc2)cc1)c1ccc(Cl)cc1 (configuration not stated) | 120 to 122
O=S(=O)(C1=Cc2ccccc2C1)c1ccc(O)cc1 | 209 to 210
CCC(C)C(C)C(=O)Nc1ccc2c(C)cn3c(=O)c(C(=O)NCCN4CCN(C(c5ccccc5)c5ccccc5)CC4)cnc3c2c1 (configuration not stated) | 226 to 230
Cc1cc(COc2ccc3nc(NC(=O)NCCN4CCOCC4)sc3c2)n(C)n1 | 160
COc1ccc(C#Cc2ccc(C(=O)O)s2)cc1C12CC3CC(CC(C3)C1)C2 | 244 to 245
COc1ccccc1C(=O)c1cccc(C(=O)O)c1 | 170 to 172
COc1ccc(Cc2nc3c(cnn3C(CCCc3ccccc3)C(C)=O)c(=O)[nH]2)cc1 (configuration not stated) | 129
CC(=O)OC(C)(C)c1nnc(-c2ccc3occ(-c4cc(F)ccc4F)c3c2)o1 | 125 to 126
COC(=O)c1ccc(CN2CCCc3cc4c(cc32)C(C)(C)CCC4(C)C)cc1 | 173 to 175
COCCNc1nc(-n2ccnc2)nc2ccc(C(=O)OC)cc12 | 252 to 253
CS(=O)(=O)N1CCN(c2cc3ccccc3c(=O)[nH]2)CC1 | 257 to 259
CCCCCCCCCCCC(=O)OC(OC(=O)N1CCN(c2cc3c(cc2F)c(=O)c(C(=O)O)cn3CC)CC1)C(=O)OC(C)C (configuration not stated) | 106 to 109
CCN(CC)C(=O)/C=C(\C)c1ccc(OCc2c(F)cccc2F)c(CC(=O)O)c1 | 167 to 168
CS(=O)(=O)OCc1cc(-c2ccc3c(c2)CCO3)nn(Cc2ccccc2Cl)c1=O | 118 to 119
COc1cccc2c1CCNC2=S | 44 to 46
CC(C)(C)c1cc(C(=O)c2cccs2)cc(CN2CCOCC2)c1O | 148
Cc1cc([N+](=O)[O-])cc2c1OCC2 | 80 to 81
O=C1N(Cc2ccccn2)c2ccccc2C12COc1cc3c(cc12)OCCO3 (configuration not stated) | 144 to 146
C[C@@H](n1ncn(-c2ccc(-n3ccn(-c4ccc(OCC(F)(F)C(F)F)cc4)c3=O)cc2)c1=O)[C@](O)(Cn1cncn1)c1ccc(F)cc1F | 181 to 183
CCOC(=O)c1cc2c(C(F)(F)F)coc2nc1C(=O)OCC | 50 to 55
Cc1c(C)c(O)c([N+](=O)[O-])c(C)c1O | 105 to 106
Cn1cc(C(=O)c2sc(NC(=O)c3ccncc3)nc2-c2ccco2)ccc1=O | 294 to 295
CNN(C)C(=S)Nc1ccc(Cl)cc1 | 103 to 104
Cc1ccc(NC(=O)c2ccc(CN(C)C)c(C(F)(F)F)c2)cc1-c1ccc2ccncc2c1 | 169 to 172

Structure (SMILES) | melting point [°C]
O=C(Nc1ccc(-n2nc(C(F)(F)F)cc2C(F)(F)F)cc1)c1cccc(CO)c1 | 160 to 162
CCCCC1(Cn2ccnc2)SCCS1 | 131 to 135
COC(CN/C=C\C(=C(C#N)C#N)c1ccc2cc(N(C)C)ccc2c1)OC | 158 to 159
O=C(O)CCSCC(=O)c1cc2[nH]c(=O)[nH]c2cc1Cl | 186 to 187
CCCc1c(C(=O)N(C)Cc2ccc3cc(O)ccc3c2)cnn1-c1ccccc1 | 138 to 141
CCC(C)NC1=NS(=O)(=O)c2cc(C(F)(F)F)ccc2N1 (configuration not stated) | 234 to 236
O=C(CCCCCN1CCN(c2cccc(C(F)(F)F)c2)CC1)N1Cc2ccc(C3=NCCO3)cc2C1 | 129
O=C(NCc1ccc([N+](=O)[O-])cc1)OCc1ccccc1 | 92 to 93
COc1ccc2c(c1)S(=O)(=O)c1c(cc(OC)c(OC(C)=O)c1Br)N2 | 258 to 260
Fc1ccc(Nc2nnc(Cc3ccncc3)c3ccccc23)cc1Cl | 185 to 187
COc1ccc(CS(=O)c2cc(OC)c(OC)c(OC)c2)cc1 (configuration not stated) | 103 to 105
Cc1cc(C(F)(F)F)nn1CC(=O)N1CCC(c2nc(NC(=O)C3=C(O)CCCC3=O)cs2)CC1 | 102 to 105
c1cc2c(N3CCNCC3)csc2cn1 | 126 to 128
CCOC(=O)N1CCC(N(C)C(=O)c2ccc(Cl)c(Cl)c2)C12CCCCC2 (configuration not stated) | 57 to 60
CC(=O)C(C#N)c1ccc(F)c(Cl)c1 (configuration not stated) | 133 to 134
COc1ccc(C(=O)O)nc1C | 183
Cc1ccc2c(c1)CC(n1ccnc1C(N)=O)C2=O (configuration not stated) | 196
CC(=O)OCC(C)(C)C(OC(C)=O)C(Oc1ccc(Cl)cc1)n1cncn1 (configuration not stated) | 84 to 87
CC1(C)COC(=O)[C@H]1NC(=O)[C@@H](CC(=O)OCc1ccccc1)n1ccc(-c2ccc(-c3ccncc3)cc2)c1 | 175 to 177
OC1CSC(Oc2cncc(-c3cccnc3F)c2)C(O)C1O (configuration not stated) | 193 to 196
CC(C)Cc1ccc2ccc(N)nc2n1 | 125 to 127
Cc1cc(C)c2c(=O)cc(C(=O)O)[nH]c2c1 | 285 to 287
